Legend:
Phytophthora infestans = assay: whole plant or invertebrate; assay type: in vivo; details: in Solanum lycopersicum, foliar, 96 h, read-out: control of fungal infection, Phytophthora infestans
Plasmopara viticola = assay: Leaf disk assay, Plasmopara viticola (downy mildew of grapevine), preventive; assay type: in vivo; details: foliar, 168 h, grapevine leaf disks, assessed seven days after inoculation, read-out: control of fungal infection, Plasmopara viticola
[1] = tested on: Erysiphe graminis f.sp. tritici; assay: Leaf disk assay, Erysiphe graminis f.sp. tritici (wheat powdery mildew), preventive; assay type: in vivo; details: Blumeria graminis, foliar, 96 h, wheat leaf segments, assessed four days after inoculation, read-out: control of fungal infection, Erysiphe graminis f.sp. tritici
Outline: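 Wheat leaf segments on agar were sprayed with compound at 200 ppm (DMSO stock diluted in water). After 12–24 h drying they were inoculated with powdery mildew spores. Preventive activity was scored 4 days after inoculation.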

[2] = tested on: Puccinia recondita f.sp. tritici; assay: Leaf disk assay, Puccinia recondita f.sp. tritici (wheat brown rust), preventive; assay type: in vivo; details: foliar, 216 h, wheat leaf segments, assessed nine days after inoculation, read-out: control of fungal infection, Puccinia recondita f.sp. tritici
Septoria nodorum = assay: Leaf disk assay, Septoria nodorum (wheat glume blotch), preventive; assay type: in vivo; details: Parastagonospora nodorum, foliar, 96 h, wheat leaf segments, assessed four days after inoculation, read-out: control of fungal infection, Septoria nodorum
Septoria tritici = assay: Growth inhibition in nutrient broth, Septoria tritici (leaf blotch), photometric; assay type: cell-based; details: Zymoseptoria tritici, PDB broth, 24 C, 72 hrs, read-out: control of fungal infection, Septoria tritici
Fusarium culmorum = assay: Growth inhibition in nutrient broth, Fusarium culmorum (root rot), photometric; assay type: cell-based; details: 48 h, read-out: control of fungal infection, Fusarium culmorum
Procedure: The compounds were tested in a leaf disk assay, with methods described below. The test compounds were dissolved in DMSO and diluted into water to 200 ppm. In the case of the test on Pythium ultimum, they were dissolved in DMSO and diluted into water to 20 ppm.
Fusarium culmorum (root rot): Conidia of the fungus from cryogenic storage were directly mixed into nutrient broth (PDB potato dextrose broth). After placing a (DMSO) solution of the test compounds into a microtiter plate (96-well format) the nutrient broth containing the fungal spores was added. The test plates were incubated at 24 C and the inhibition of growth was determined photometrically after 48 hrs.

Pythium ultimum = assay: Growth inhibition in potato dextrose broth, Pythium ultimum (damping off), photometric; assay type: cell-based; details: Globisporangium ultimum, 24° C., 48 hours, read-out: control of fungal infection, Pythium ultimum
Outline: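 Growth inhibition was read photometrically at 48 hours after incubation at 24° C. Test compound was diluted from DMSO to 20 ppm in water and combined with potato dextrose broth seeded with Pythium ultimum mycelial fragments.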

C#Cc1cnc2cc(F)c(OC(SC)C(=O)NC(C)(C)C#CCCOC)cc2c1 (centres unmarked) [Example 189]
≥ 60%: pest or weed control at 200 ppm (Phytophthora infestans) | pest or weed control at 200 ppm (Plasmopara viticola) | pest or weed control at 200 ppm [1] | pest or weed control at 200 ppm [2] | pest or weed control at 200 ppm (Septoria nodorum) | inhibition of growth at 60 ppm (Septoria tritici) | inhibition of growth at 60 ppm (Fusarium culmorum) | inhibition of growth at 20 ppm (Pythium ultimum)

C#Cc1cnc2c(F)cc(OC(SC)C(=O)NC(C)(C)C#CCOC)cc2c1 (centres unmarked) [Example 218]
≥ 60%: pest or weed control at 200 ppm (Phytophthora infestans) | pest or weed control at 200 ppm (Plasmopara viticola) | pest or weed control at 200 ppm [1] | pest or weed control at 200 ppm [2] | pest or weed control at 200 ppm (Septoria nodorum) | inhibition of growth at 60 ppm (Septoria tritici) | inhibition of growth at 60 ppm (Fusarium culmorum) | inhibition of growth at 20 ppm (Pythium ultimum)

C#Cc1cnc2cc(F)c(OC(SC)C(=O)NC(C)(C)COCC)cc2c1 (centres unmarked) [Example 200]
≥ 60%: pest or weed control at 200 ppm (Phytophthora infestans) | pest or weed control at 200 ppm (Plasmopara viticola) | pest or weed control at 200 ppm [1] | pest or weed control at 200 ppm [2] | pest or weed control at 200 ppm (Septoria nodorum) | inhibition of growth at 60 ppm (Septoria tritici) | inhibition of growth at 60 ppm (Fusarium culmorum) | inhibition of growth at 20 ppm (Pythium ultimum)

C#Cc1cnc2ccc(OC(SC)C(=O)NCC)cc2c1 (centres unmarked) [Example 97]
≥ 60%: pest or weed control at 200 ppm (Phytophthora infestans) | pest or weed control at 200 ppm (Plasmopara viticola) | pest or weed control at 200 ppm [1] | pest or weed control at 200 ppm [2] | pest or weed control at 200 ppm (Septoria nodorum) | inhibition of growth at 60 ppm (Septoria tritici) | inhibition of growth at 60 ppm (Fusarium culmorum) | inhibition of growth at 20 ppm (Pythium ultimum)

C#Cc1cnc2ccc(OC(SC)C(=O)NC3CCC3)cc2c1 (centres unmarked) [Example 213]
≥ 60%: pest or weed control at 200 ppm (Phytophthora infestans) | pest or weed control at 200 ppm (Plasmopara viticola) | pest or weed control at 200 ppm [1] | pest or weed control at 200 ppm [2] | pest or weed control at 200 ppm (Septoria nodorum) | inhibition of growth at 60 ppm (Septoria tritici) | inhibition of growth at 60 ppm (Fusarium culmorum) | inhibition of growth at 20 ppm (Pythium ultimum)

C#Cc1cnc2ccc(OC(SC)C(=O)NC3CC3)cc2c1 (centres unmarked) [Example 212]
≥ 60%: pest or weed control at 200 ppm (Phytophthora infestans) | pest or weed control at 200 ppm (Plasmopara viticola) | pest or weed control at 200 ppm [1] | pest or weed control at 200 ppm [2] | pest or weed control at 200 ppm (Septoria nodorum) | inhibition of growth at 60 ppm (Septoria tritici) | inhibition of growth at 60 ppm (Fusarium culmorum) | inhibition of growth at 20 ppm (Pythium ultimum)

CSC(Oc1ccc2ncc(C#CCCl)cc2c1)C(=O)NC(C)(C)C (centres unmarked) [Example 143]
≥ 60%: pest or weed control at 200 ppm [2] | pest or weed control at 200 ppm (Septoria nodorum) | inhibition of growth at 60 ppm (Septoria tritici) | inhibition of growth at 60 ppm (Fusarium culmorum) | inhibition of growth at 20 ppm (Pythium ultimum)

C#Cc1cnc2cc(F)c(OC(SC)C(=O)NC(C)(C=O)COC)cc2c1 (centres unmarked) [Example 210]
≥ 60%: pest or weed control at 200 ppm (Plasmopara viticola) | pest or weed control at 200 ppm [1] | pest or weed control at 200 ppm [2] | pest or weed control at 200 ppm (Septoria nodorum) | inhibition of growth at 60 ppm (Septoria tritici) | inhibition of growth at 60 ppm (Fusarium culmorum) | inhibition of growth at 20 ppm (Pythium ultimum)

C#CCNC(=O)C(Oc1ccc2ncc(C#C)cc2c1)SC (centres unmarked) [Example 208]
≥ 60%: pest or weed control at 200 ppm (Phytophthora infestans) | pest or weed control at 200 ppm (Plasmopara viticola) | pest or weed control at 200 ppm [1] | pest or weed control at 200 ppm [2] | pest or weed control at 200 ppm (Septoria nodorum) | inhibition of growth at 60 ppm (Septoria tritici) | inhibition of growth at 60 ppm (Fusarium culmorum) | inhibition of growth at 20 ppm (Pythium ultimum)

C#Cc1cnc2cc(F)c(OC(SC)C(=O)NC(C)(C)C#CC)cc2c1 (centres unmarked) [Example 107]
≥ 60%: pest or weed control at 200 ppm (Phytophthora infestans) | pest or weed control at 200 ppm (Plasmopara viticola) | pest or weed control at 200 ppm [1] | pest or weed control at 200 ppm [2] | pest or weed control at 200 ppm (Septoria nodorum) | inhibition of growth at 60 ppm (Septoria tritici) | inhibition of growth at 60 ppm (Fusarium culmorum)

C#Cc1cnc2ccc(OC(SC)C(=O)NC(C)(C#CC)CC)cc2c1 (centres unmarked) [Example 204]
≥ 60%: pest or weed control at 200 ppm (Phytophthora infestans) | pest or weed control at 200 ppm (Plasmopara viticola) | pest or weed control at 200 ppm [1] | pest or weed control at 200 ppm [2] | pest or weed control at 200 ppm (Septoria nodorum) | inhibition of growth at 60 ppm (Septoria tritici) | inhibition of growth at 60 ppm (Fusarium culmorum) | inhibition of growth at 20 ppm (Pythium ultimum)

C#Cc1cnc2ccc(OC(SC)C(=O)NC(C)C)cc2c1 (centres unmarked) [Example 98]
≥ 60%: pest or weed control at 200 ppm (Phytophthora infestans) | pest or weed control at 200 ppm (Plasmopara viticola) | pest or weed control at 200 ppm [1] | pest or weed control at 200 ppm [2] | pest or weed control at 200 ppm (Septoria nodorum) | inhibition of growth at 60 ppm (Septoria tritici) | inhibition of growth at 60 ppm (Fusarium culmorum) | inhibition of growth at 20 ppm (Pythium ultimum)

C#CCC(C)(C)NC(=O)C(Oc1cc2cc(C#C)cnc2cc1F)SC (centres unmarked) [Example 187]
≥ 60%: pest or weed control at 200 ppm (Phytophthora infestans) | pest or weed control at 200 ppm (Plasmopara viticola) | pest or weed control at 200 ppm [1] | pest or weed control at 200 ppm [2] | pest or weed control at 200 ppm (Septoria nodorum) | inhibition of growth at 60 ppm (Septoria tritici) | inhibition of growth at 60 ppm (Fusarium culmorum) | inhibition of growth at 20 ppm (Pythium ultimum)

C#Cc1cnc2c(F)cc(OC(SC)C(=O)NC(C)C)cc2c1 (centres unmarked) [Example 222]
≥ 60%: pest or weed control at 200 ppm (Phytophthora infestans) | pest or weed control at 200 ppm (Plasmopara viticola) | pest or weed control at 200 ppm [1] | pest or weed control at 200 ppm [2] | pest or weed control at 200 ppm (Septoria nodorum) | inhibition of growth at 60 ppm (Septoria tritici) | inhibition of growth at 60 ppm (Fusarium culmorum) | inhibition of growth at 20 ppm (Pythium ultimum)

C#Cc1cnc2cc(F)c(OC(SC)C(=O)NC(C)(C#C)CC)cc2c1 (centres unmarked) [Example 188]
≥ 60%: pest or weed control at 200 ppm (Phytophthora infestans) | pest or weed control at 200 ppm (Plasmopara viticola) | pest or weed control at 200 ppm [1] | pest or weed control at 200 ppm [2] | pest or weed control at 200 ppm (Septoria nodorum) | inhibition of growth at 60 ppm (Septoria tritici) | inhibition of growth at 60 ppm (Fusarium culmorum) | inhibition of growth at 20 ppm (Pythium ultimum)

C#Cc1cnc2cc(F)c(OC(SC)C(=O)NC(C)(C)C#CCOCC=C)cc2c1 (centres unmarked) [Example 199]
≥ 60%: pest or weed control at 200 ppm (Phytophthora infestans) | pest or weed control at 200 ppm (Plasmopara viticola) | pest or weed control at 200 ppm [1] | pest or weed control at 200 ppm [2] | pest or weed control at 200 ppm (Septoria nodorum) | inhibition of growth at 60 ppm (Septoria tritici) | inhibition of growth at 60 ppm (Fusarium culmorum) | inhibition of growth at 20 ppm (Pythium ultimum)

C#Cc1cnc2cc(F)c(OC(SC)C(=O)NC(C)C)cc2c1 (centres unmarked) [Example 181]
≥ 60%: pest or weed control at 200 ppm (Phytophthora infestans) | pest or weed control at 200 ppm (Plasmopara viticola) | pest or weed control at 200 ppm [1] | pest or weed control at 200 ppm [2] | pest or weed control at 200 ppm (Septoria nodorum) | inhibition of growth at 60 ppm (Septoria tritici) | inhibition of growth at 60 ppm (Fusarium culmorum) | inhibition of growth at 20 ppm (Pythium ultimum)

C#Cc1cnc2ccc(OC(OC)C(=O)NC(C)(C)C)cc2c1 (centres unmarked) [Example 87]
≥ 60%: pest or weed control at 200 ppm (Phytophthora infestans) | pest or weed control at 200 ppm (Plasmopara viticola) | pest or weed control at 200 ppm [1] | pest or weed control at 200 ppm [2] | pest or weed control at 200 ppm (Septoria nodorum) | inhibition of growth at 60 ppm (Septoria tritici) | inhibition of growth at 60 ppm (Fusarium culmorum)

C#Cc1cnc2ccc(OC(SC)C(=O)NC3CCCC3)cc2c1 (centres unmarked) [Example 214]
≥ 60%: pest or weed control at 200 ppm (Phytophthora infestans) | pest or weed control at 200 ppm (Plasmopara viticola) | pest or weed control at 200 ppm [1] | pest or weed control at 200 ppm [2] | pest or weed control at 200 ppm (Septoria nodorum) | inhibition of growth at 60 ppm (Septoria tritici) | inhibition of growth at 60 ppm (Fusarium culmorum) | inhibition of growth at 20 ppm (Pythium ultimum)
